Experiment: Intravenous and intraduodenal (bolus) bioavailability of zanamivir from Capmul MCM L8 25, 50, 75 µL (Example 7)
Settings: male, Sprague-Dawley, rat, in vivo; for concentration at 0.83 hr / concentration at 1 hr / concentration at 1.5 hr / concentration at 2 hr / concentration at 0.25 hr / concentration at 0.5 hr / concentration at 0.033 hr / concentration at 0.083 hr: 1.5 mg/animal, Plasma concentration; for clearance / half-life / Vd / Tmax: 1.5 mg; for clearance: CL; for half-life: T1/2, IV 1.5 mg/animal; for Vd: Vss
Excerpt: Male Sprague-Dawley rats (Hilltop Labs), 3 animals per treatment group, 250-350 grams in weight, were fitted with a jugular vein cannula (JVC). Animals intended for intraduodenal dosing were also fitted with one or more intraduodenal cannula (IDC) and those intended for intravenous dosing were fitted with a second JVC. Food was withheld from the animals for a minimum of twelve hours prior to test article administration and was returned approximately four hours post-dose. Water was supplied ad libitum.
Intraduodenal doses composed of 1.5 mg of zanamivir and varying amounts of an enhancer (glycerol or Capmul MCM L8) were injected directly into the duodenum via the IDC. Intravenous dosing was conducted by the injection of 1.5 mg of zanamivir in 200 μL of PBS through a JVC. For some experiments, the absorption enhancer was administered intraduodenally 2 hr prior to administering 1.5 mg of zanamivir in PBS through a second IDC. Each intraduodenal dose was followed with the introduction of a small air bubble (˜10 μL) in the cannula followed by a flush of 125 μL of PBS to ensure the dose was given in full. The volume of PBS used for cannula flush was consistent across the treatment groups. The cannula was tied to prevent the PBS remaining in the cannula from entering the duodenum.
Blood samples collected via the JVC, approximately 400 μL each, were obtained at 2 min, 5 min, 15 min, 30 min, 60 min, 90 min, and 120 min, with sodium heparin used as an anti-coagulant. Each sample was placed into a chilled tube containing the anticoagulant and kept on ice until centrifugation at 4° C., 3,000×g, for 5 min. The plasma supernatants were stored at −70° C. until LC-MS analysis.
Dosing solution samples were assayed by LC-MS/MS using electrospray ionization. The chromatographic system consisted of Perkin Elmer series 200 micropumps and autosampler equipped with a Waters Atlantic® HILIC Silica 3 μM, 2.1×50 mm column. The mass spectrometer was a PE Sciex API 4000 with electrospray interface in multiple reaction monitoring mode. […] Stock solutions (1 mg/mL zanamivir) were prepared in water. Standards (eight concentrations) were prepared in the appropriate matched matrix (HBSSg or Sprague-Dawley rat plasma containing sodium heparin) and diluted 50-fold with methanol. Experimental samples were treated identically.
Standards and samples were prepared in Sprague Dawley rat plasma containing sodium heparin as an anticoagulant. An eight-point calibration curve was prepared at concentrations of 1000, 750, 500, 250, 100, 50, 25, and 10 ng/mL by serial dilution. Standard samples were treated identically to the study samples.
Plasma samples were extracted by protein precipitation in methanol.
In this example, the bioavailability of Zanamivir was evaluated after intraduodenal doses in male Sprague-Dawley rats. The test compound was dosed at 1.5 mg/animal through intravenous and intraduodenal routes from normal saline and Capmul MCM L8 formulations, respectively. Plasma levels were determined by LC-MS/MS analysis. Pharmacokinetic parameters were estimated by a non-compartmental model using WinNonlin v5.2.1 software.
Each ID dose in groups 2-4 will be followed with a small air bubble ([…]) and a flush of […] of PBS to insure the dose is given in full. The volume of PBS used for cannulae flush will be maintained consistent across the animals and the treatment groups. The cannula will then be tied to help prevent the PBS remaining in the cannula from entering the duodenum.

[1] = ID bolus 1.5 mg/animal, 50 µL Capmul MCM L8, Ex.7, individual rats
[2] = ID bolus 1.5 mg/animal, 50 µL Capmul MCM L8, Ex.7, mean
[3] = intraduodenal bolus, 75 μL Capmul MCM L8, mean of 3 rats
[4] = intraduodenal bolus, 75 μL Capmul MCM L8, rat 963
[5] = intraduodenal bolus, 75 μL Capmul MCM L8, rat 964
[6] = intraduodenal bolus, 75 μL Capmul MCM L8, rat 965
[7] = iv, IV 1.5 mg/animal, Normal Saline, Ex.7, individual rats
[8] = iv, IV 1.5 mg/animal, Normal Saline, Ex.7, mean

Question: Which concentration at 0.83 hr [1] does the source give for `CC(=O)NC1C(NC(=N)N)C=C(C(=O)O)OC1C(O)C(O)CO` (stereo not drawn) [Zanamivir, 5-acetamido-4-guanidino-6-(1,2,3-trihydroxypropyl)-5,6-dihydro-4H-pyran-2-carboxylic acid] here?
Answer: The concentration at 0.83 hr was 2620 ng/mL.

Question: What about the concentration at 0.83 hr [2] of the same compound?
Answer: The concentration at 0.83 hr was 2120 ng/mL.

Question: What about the concentration at 1 hr [1] of the same compound?
Answer: The concentration at 1 hr was 695 ng/mL.

Question: What about the concentration at 1 hr [2] of the same compound?
Answer: Its concentration at 1 hr is 651 ng/mL.

Question: And the concentration at 1.5 hr [1]?
Answer: The concentration at 1.5 hr was 216 ng/mL.

Question: What about the concentration at 1.5 hr [2] of the same compound?
Answer: Its concentration at 1.5 hr is 244 ng/mL.

Question: And the concentration at 2 hr [1]?
Answer: The concentration at 2 hr was 103 ng/mL.

Question: And the concentration at 2 hr [2]?
Answer: Its concentration at 2 hr is 120 ng/mL.

Question: And the concentration at 0.25 hr [3]?
Answer: The concentration at 0.25 hr was 2390 ng/mL.

Question: And the concentration at 0.25 hr [4]?
Answer: The concentration at 0.25 hr was 2560 ng/mL.

Question: What about the concentration at 0.25 hr [5] of the same compound?
Answer: Its concentration at 0.25 hr is 1710 ng/mL.

Question: And the concentration at 0.25 hr [6]?
Answer: The concentration at 0.25 hr was 2890 ng/mL.

Question: What about the concentration at 0.5 hr [3] of the same compound?
Answer: The concentration at 0.5 hr was 1720 ng/mL.

Question: What about the concentration at 0.5 hr [4] of the same compound?
Answer: Its concentration at 0.5 hr is 1820 ng/mL.

Question: And the concentration at 0.5 hr [5]?
Answer: The concentration at 0.5 hr was 1130 ng/mL.

Question: And the concentration at 0.5 hr [6]?
Answer: The concentration at 0.5 hr was 2200 ng/mL.

Question: And the concentration at 0.83 hr [3]?
Answer: The concentration at 0.83 hr was 2570 ng/mL.

Question: And the concentration at 0.83 hr [4]?
Answer: Its concentration at 0.83 hr is 2940 ng/mL.

Question: And the concentration at 0.83 hr [5]?
Answer: The concentration at 0.83 hr was 1690 ng/mL.

Question: And the concentration at 0.83 hr [6]?
Answer: Its concentration at 0.83 hr is 3070 ng/mL.

Question: What about the concentration at 1 hr [3] of the same compound?
Answer: Its concentration at 1 hr is 828 ng/mL.

Question: And the concentration at 1 hr [4]?
Answer: The concentration at 1 hr was 748 ng/mL.

Question: And the concentration at 1 hr [5]?
Answer: The concentration at 1 hr was 807 ng/mL.

Question: What about the concentration at 1 hr [6] of the same compound?
Answer: The concentration at 1 hr was 929 ng/mL.

Question: What about the concentration at 1.5 hr [3] of the same compound?
Answer: The concentration at 1.5 hr was 349 ng/mL.

Question: What about the concentration at 1.5 hr [4] of the same compound?
Answer: The concentration at 1.5 hr was 403 ng/mL.

Question: And the concentration at 1.5 hr [5]?
Answer: Its concentration at 1.5 hr is 273 ng/mL.

Question: And the concentration at 1.5 hr [6]?
Answer: Its concentration at 1.5 hr is 372 ng/mL.

Question: What about the concentration at 2 hr [3] of the same compound?
Answer: Its concentration at 2 hr is 154 ng/mL.

Question: And the concentration at 2 hr [4]?
Answer: The concentration at 2 hr was 180 ng/mL.

Question: What about the concentration at 2 hr [5] of the same compound?
Answer: Its concentration at 2 hr is 121 ng/mL.

Question: And the concentration at 2 hr [6]?
Answer: The concentration at 2 hr was 160 ng/mL.

Question: What about the clearance [7] of the same compound?
Answer: The clearance was 10.5 mL/min/kg.

Question: And the clearance [8]?
Answer: The clearance was 10.2 mL/min/kg.

Question: What about the half-life (iv, Normal Saline, Ex.7, individual rats) of the same compound?
Answer: Its half-life is 24.1 min.

Question: And the half-life (iv, Normal Saline, Ex.7, mean)?
Answer: The half-life was 23.8 ± 2.1 min.

Question: And the Vd [7]?
Answer: The Vd was 0.276 L/kg.

Question: What about the Vd [8] of the same compound?
Answer: Its Vd is 0.271 ± 0.01 L/kg.

Question: And the Tmax [7]?
Answer: The Tmax was 0 h.

Question: And the Tmax [8]?
Answer: The Tmax was 0 h.

Question: What about the concentration at 0.033 hr [7] of the same compound?
Answer: The concentration at 0.033 hr was 20900 ng/mL.

Question: What about the concentration at 0.033 hr [8] of the same compound?
Answer: The concentration at 0.033 hr was 21400 ng/mL.

Question: And the concentration at 0.083 hr [7]?
Answer: The concentration at 0.083 hr was 11000 ng/mL.

Question: What about the concentration at 0.083 hr [8] of the same compound?
Answer: Its concentration at 0.083 hr is 12300 ng/mL.

Question: And the concentration at 0.25 hr [7]?
Answer: Its concentration at 0.25 hr is 11000 ng/mL.

Question: What about the concentration at 0.25 hr [8] of the same compound?
Answer: Its concentration at 0.25 hr is 10700 ng/mL.

Question: And the concentration at 0.5 hr [7]?
Answer: Its concentration at 0.5 hr is 6270 ng/mL.

Question: And the concentration at 0.5 hr [8]?
Answer: Its concentration at 0.5 hr is 6070 ng/mL.

Question: And the concentration at 1 hr [7]?
Answer: The concentration at 1 hr was 1560 ng/mL.

Question: And the concentration at 1 hr [8]?
Answer: The concentration at 1 hr was 1760 ng/mL.

Question: And the concentration at 1.5 hr [7]?
Answer: Its concentration at 1.5 hr is 741 ng/mL.

Question: What about the concentration at 1.5 hr [8] of the same compound?
Answer: Its concentration at 1.5 hr is 755 ng/mL.

Question: And the concentration at 2 hr [7]?
Answer: Its concentration at 2 hr is 278 ng/mL.

Question: What about the concentration at 2 hr [8] of the same compound?
Answer: Its concentration at 2 hr is 310 ng/mL.

Source: US20140314857A1, “FORMULATIONS FOR ENHANCED BIOAVAILABILITY OF ZANAMIVIR” (priority 2012, published 2014)
